Source: patent publication US6338953B1, “Expression of an exogenous gene in a mammalian cell by use of a non-mammalian DNA virus having an altered coat protein” (The General Hospital Corporation, priority 1996, dated 2002)

Experiments:
[1] = test system: VGZ3-treated mammalian cells; assay: Inhibition of β-galactosidase expression in VGZ3-treated cells; assay type: cell-based; settings: data not shown
HepG2 cells [2] = assay: Colorimetric (ONPG) β-galactosidase assay of cell extracts; assay type: cell-based, human
Description: Adherent cell lines were seeded one day prior to infection. Cells were exposed to virus in 2 ml of medium for 90 minutes, and then the virus-containing medium was removed and replaced with fresh medium. Mock-infected cells were treated with 2 ml medium lacking the viral inoculum.
To measure expression of the reporter gene in the infected cells, colorimetric assays of β-galactosidase enzymatic activity were performed with standard methods (Norton et al., 1985, Molecular & Cellular Biology 5:281-290). Other conventional methods for measuring β-galactosidase activity could be used in lieu of the methods employed in this example. Cell extracts were prepared at one day post-infection. Cell monolayers were rinsed three times with PBS, scraped from the dish, and collected by low-speed centrifugation. The cell pellets were resuspended in 25 mM Tris pH 7.4/0.1 mM EDTA and then subjected to three cycles of freezing in liquid nitrogen and thawing in a 37° C. water bath. The extracts were then clarified by centrifugation at 14,000×g for 5 minutes. Standard conditions for assaying β-galactosidase activity utilized 0.1 ml of cell extract, 0.8 ml of PM-2 buffer, and 0.2 ml of […] (4 mg/ml) in PM-2 buffer for 10 minutes at 37° C. (Norton et al., 1985, Mol. & Cell. Biol. 5:281-290). The reaction was stopped by the addition of 0.5 ml of 1 M sodium carbonate. The amount of substrate hydrolyzed was detected spectrophotometrically at 420 nm, and β-galactosidase enzymatic activity was calculated with conventional methods (Norton et al., 1985, Mol. & Cell. Biol. 5:281-290). The assay was verified to be linear with respect to extract concentration and time. Extract protein concentrations were determined using the Coomassie Plus protein assay (Pierce) with bovine serum albumin as a standard, and the level of β-galactosidase activity was expressed as units of β-galactosidase activity per mg of protein. Other standard protein assays can be used, if desired.
Baculovirus-mediated Gene Transfer is Inhibited by Lysomotropic Agents: To gain insight into the mechanism by which baculoviruses express an exogenous gene in a mammalian cell, the susceptibility of gene expression to a lysomotropic agent was examined. Like other enveloped viruses, the budded form of AcMNPV normally enters cells via endocytosis, followed by low pH-triggered fusion of the viral envelope with the endosomal membrane, thus allowing escape into the cytoplasm (Blissard et al., 1993, J. Virol. 66:6829-6835; Blissard et al., 1990, Ann. Rev. of Entomol. 35:127-155). To determine whether endosome acidification was necessary for baculovirus-mediated gene transfer into mammalian cells, HepG2 cells were infected with RSV-lacZ AcMNPV in the presence of chloroquine, a lysomotropic agent. HepG2 cells were exposed to AcMNPV virus in media containing or lacking inhibitor for 90 minutes, then the virus-containing media were removed and replaced with fresh media containing or lacking inhibitors as listed.
At one day post-infection, the cells were harvested and extracts were assayed for β-galactosidase activity and protein content. Each value in the table represents the average of three independent assays, with the amount of β-galactosidase produced by the RSV-lacZ AcMNPV virus in the absence of inhibitors assigned a value of 100%. β-galactosidase activity was normalized for protein content of each extract. […]

HepG2 cells [3] = assay type: cell-based, human; settings: moi 100
Rat Hepatocytes = assay: Colorimetric (ONPG) β-galactosidase assay of cell extracts; settings: background subtracted

Q: With `CCN(CC)CCCC(C)Nc1ccnc2cc(Cl)ccc12` (stereo not drawn) [chloroquine] as the compound, how does the “effect on β-galactosidase expression in VGZ3-treated mammalian cells” value [1] read?
A: inhibited β-galactosidase expression

Q: And the “effect on de novo expression of β-galactosidase” value (HepG2 cells [2]; 25 μM continuously present during and after exposure to virus)?
A: completely prevented

Q: And the “effect on β-galactosidase expression” value (HepG2 cells [2]; added 90 minutes after exposure to the virus)?
A: only partial inhibition

Q: For `C[C@@H]1C[C@@H]([C@H](O)CC2CC(=O)NC(=O)C2)C(=O)[C@@H](C)C1` [cycloheximide], which “effect on β-galactosidase expression in VGZ3-treated mammalian cells” value [1] is on record?
A: inhibited β-galactosidase expression

Q: And the “inhibition of accumulation of β-galactosidase enzyme activity” value (HepG2 cells [2]; HepG2 infected with RSV-lacZ virus, drug after infection)?
A: more than 90%

Q: For Albumin, which “X-gal staining of cells not treated with butyrate” value (HepG2 cells [3]) is on record?
A: positively stained cells were detected

Q: And the “Promoter strength, Rat Hepatocytes −butyrate” value (Rat Hepatocytes)?
A: 0.15 ± 0.08 Units/mg

Q: And the “Promoter strength, Hep G2 −butyrate” value (HepG2 cells [2]; moi 100, 24 hours, mock background subtracted)?
A: 0.0 ± 0.0 Units/mg

Q: And the “Promoter strength, Hep G2 +butyrate” value (HepG2 cells [2]; moi 100, sodium butyrate added 2 hours after infection, 24 hours, background subtracted)?
A: 0.08 ± 0.04 Units/mg
